Measured values published in patent US20260116845A1, “LIPIDS AND COMPOSITIONS THEREOF” (Kernal Biologics, Inc., priority 2023, published 2026).

Tests used:
Assay type in all cases: cell-based
Details in all cases: 200 ng Fluc mRNA-LNP, 24 hours; Table 4
AML12 Cell Line = assay: Transfection of AML12 Cell Line with FLuc mRNA LNPs (ONE-Glo EX luciferase signal)
Procedure: (§1) mRNA encapsulated lipid nanoparticles (mRNA LNPs) were formulated using microfluidic mixing with a PNI Ignite instrument. Briefly, lipids (ionizable: structural: helper: PEG) were dissolved in ethanol and mixed with and aqueous solution of mRNA. These mRNA-loaded dispersions were then neutralized via a buffer exchange with a pre-determined buffer overnight. Afterwards, formed LNPs were concentrated with Amicon filter centrifugation, filtered, concentration of mRNA determined through a ribogreen assay, and frozen at −80° C. until use.
(§2) Cell lines were grown to confluence in T75 flasks using complete media of DMEM-F12 for AML12 and DMEM for both B16F10 and MC38.K. Cells were plated in a white 96 flat-well plate (AML12=20,000 cells/well, B16F10 and MC38.K=5,000 cells/well) with their respected media. Lipid nanoparticles were first diluted to 50 μg/ml using Opti-MEM and pre-incubated with mouse serum for 30 minutes to give an LNP concentration of 8 μg/ml. Cell media was replaced with Opti-MEM and LNPs were added to cells (200 ng of mRNA-LNP), placed back in the incubator, and allowed to transfect for 24 hours. Afterwards, 100 μl of Promega's ONE-Glo™ EX Luciferase Assay System or Promega's CellTiter-Glo® Luminescent Cell Viability Assay was added and mixed in their respective wells, followed by recording luminescence signals on a Thermo Scientific Varioskan LUX multimode microplate reader. The results are shown in FIG. 1, FIG. 2, FIG. 3, FIG. 4, FIG. 5, FIG. 6, FIG. 10, FIG. 11, and FIG. 21.

MC38.K Cell Line = assay: Transfection of MC38.K Cell Line with FLuc mRNA LNPs (ONE-Glo EX luciferase signal)
Procedure: as §1, §2

B16F10 Cell Line = assay: Transfection of B16F10 Cell Line with FLuc mRNA LNPs (ONE-Glo EX luciferase signal)
Procedure: as §1, §2

SMILES	Total Luciferin Signal (RLU) In Vitro - AML12 (AML12 Cell Line) [RLU]	Total Luciferin Signal (RLU) In Vitro - MC38.K (MC38.K Cell Line) [RLU]	Total Luciferin Signal (RLU) In Vitro - B16F10 (B16F10 Cell Line) [RLU]
CCCCCCCCC(CCCCCCCC)C(=O)OCCCCCCCN(CCCCCC(=O)OCCCCCCCCC(C)C)CCOC(=O)CCCN(C)C [Compound 7]	1.48E+06	1.35E+06	1.11E+06
CCCCCCCCCOC(=O)CCCCCCCN(CCCCO)CCCCCCCC(=O)OCC(CCCCCCCC)CCCCCCCCF (stereo not drawn) [Compound 77, 10-fluoro-2-octyldecyl 8-((4-hydroxybutyl)(8-(nonyloxy)-8-oxooctyl)amino)octanoate]	5.38E+06	3.24E+07	7.80E+06
CCCCC(CCCCCCF)C(=O)OCCCCCCCCN(CCCCO)CCCCCCC(C)C(=O)OCCCCCCCCC(C)C (stereo not drawn) [Compound 88, 8-((4-hydroxybutyl)(7-methyl-8-((9-methyldecyl)oxy)-8-oxooctyl)amino)octyl 2-butyl-8-fluorooctanoate]	3.65E+05	1.24E+07	9.41E+05
CCCCCCCCC(CCCCCCCC)OC(=O)CCCCCCCN(CCCCCOC(=O)CCCCCCCCC(C)C)CCOC(=O)CCCN(C)C [Compound 15]	1.53E+06	6.94E+05	1.97E+06
CCCCCCCCC(CCCCCCCC)OC(=O)CCCCCCCN(CCCCCCCC(=O)OCCCCCCCCC(C)C)CCOC(=O)CCCN(C)CCO [Compound 5]	2.04E+05	4.09E+06	1.79E+06
CCCCCCCCC(CCCCCCCC)OC(=O)CCCCCN(CCO)CCCCCC(=O)OC(CCCCCCCC)CCCCCCCC [Compound 51]	1.01E+06	1.70E+06	1.28E+06
CC(C)CCCCCCCCC(=O)OCCCCCCCN(CCO)CCCCCCCOC(=O)CCCCCCCCC(C)C [Compound 48]	3.31E+06	2.17E+06	4.45E+06
CCCCCCCCC(CCCCCCCCF)OC(=O)CCCCCCCN(CCCCCCC(C)C(=O)OCCCCCCCCC(C)C)CC(C)CO (stereo not drawn) [Compound 75, 9-methyldecyl 8-((8-((1-fluoroheptadecan-9-yl)oxy)-8-oxooctyl)(3-hydroxy-2-methylpropyl)amino)-2-methyloctanoate]	1.59E+04	4.51E+04	2.15E+04
CCCCCCC(CCCCCCCCF)COC(=O)CCCCCCCN(CCO)CCCCCCC(C)C(=O)OCCCCCCCCC(C)C (stereo not drawn) [Compound 73, 9-methyldecyl 8-((8-((10-fluoro-2-hexyldecyl)oxy)-8-oxooctyl)(2-hydroxyethyl)amino)-2-methyloctanoate]	2.93E+06	1.77E+07	7.08E+06
CCCCCCCCCOC(=O)C(C)CCCCCCN(CCCCO)CCCCCCCC(=O)OCC(CCCCCC)CCCCCCCCF (stereo not drawn) [Compound 85, nonyl 8-((8-((10-fluoro-2-hexyldecyl)oxy)-8-oxooctyl)(4-hydroxybutyl)amino)-2-methyloctanoate]	7.47E+06	6.32E+07	1.03E+07
CCCCCCCCC(CCCCCCCC)OC(=O)CCCCCCCN(CCCCCCCC(=O)OCCCCCCCCF)CCOC(=O)CCCN(C)C [Compound 22]	1.24E+05	2.65E+06	5.04E+05
CCCCCCCCCOC(=O)C(C)CCCCCCN(CCCCO)CCCCCCCCOC(=O)C(CCCC)CCCCCCF (stereo not drawn) [Compound 76, 8-((4-hydroxybutyl)(7-methyl-8-(nonyloxy)-8-oxooctyl)amino)octyl 2-butyl-8-fluorooctanoate]	3.79E+04	2.38E+05	7.14E+04
CCCCCCC(CCCCCCCCF)COC(=O)CCCCCCCN(CCCCO)CCCCCCC(C)C(=O)OCCCCCCCCC(C)C (stereo not drawn) [Compound 86, 9-methyldecyl 8-((8-((10-fluoro-2-hexyldecyl)oxy)-8-oxooctyl)(4-hydroxybutyl)amino)-2-methyloctanoate]	3.99E+06	3.80E+07	7.58E+06
CCCCCCCCCOC(=O)CCCCCCCN(CCO)CCCCCCCCOC(=O)C(CCCC)CCCCCCF (stereo not drawn) [Compound 82, 8-((2-hydroxyethyl)(8-(nonyloxy)-8-oxooctyl)amino)octyl 2-butyl-8-fluorooctanoate]	1.48E+04	6.18E+04	1.70E+04
CCCCCCCCC(CCCCCCCC)OC(=O)CCCCCCCN(CCO)CCCCCCCC(=O)OC(CCCCCCCC)CCCCCCCC [Compound 44]	8.87E+05	3.17E+06	1.26E+06
CCCCCCCCCOC(=O)CCCCCCCN(CCO)CCCCCCCC(=O)OC(CCCCCCCF)CCCCCCCF [Compound 84, 1,15-difluoropentadecan-8-yl 8-((2-hydroxyethyl)(8-(nonyloxy)-8-oxooctyl)amino)octanoate]	5.18E+04	5.52E+05	8.32E+04
CCCCCCCCC(CCCCCCCCF)C(=O)OCCCCCCCN(CCO)CCCCCCCOC(=O)C(C)CCCCCCCC(C)C (stereo not drawn) [Compound 87, 7-((7-((10-fluoro-2-octyldecanoyl)oxy)heptyl)(2-hydroxyethyl)amino)heptyl 2,10-dimethylundecanoate]	1.52E+06	6.61E+06	3.16E+06
CCCCCCCCCOC(=O)C(C)CCCCCCN(CCO)CCCCCCCC(=O)OCC(CCCCCC)CCCCCCCCF (stereo not drawn) [Compound 78, nonyl 8-((8-((10-fluoro-2-hexyldecyl)oxy)-8-oxooctyl)(2-hydroxyethyl)amino)-2-methyloctanoate]	2.42E+06	2.21E+07	6.65E+06
CCCCCCCCC(CCCCCCCC)C(=O)OCCCCCCCN(CCO)CCCCCCCOC(=O)C(CCCCCCCC)CCCCCCCC [Compound 46]	1.30E+06	4.59E+06	1.48E+06
CCCCC(CCCCCCF)C(=O)OCCCCCCCCN(CCO)CCCCCCC(C)C(=O)OCCCCCCCCC(C)C (stereo not drawn) [Compound 79, 8-((2-hydroxyethyl)(7-methyl-8-((9-methyldecyl)oxy)-8-oxooctyl)amino)octyl 2-butyl-8-fluorooctanoate]	7.26E+05	1.65E+07	1.84E+06
CCCCCCCCCC(=O)OCCCCCCCN(CCO)CCCCCCCOC(=O)CCCCCCCCC [Compound 47]	3.52E+04	5.18E+04	3.88E+04
CCCCCCCCCOC(=O)CCCCCN(CCO)CCCCCC(=O)OCCCCCCCCC [Compound 50]	1.54E+04	1.85E+04	1.30E+04
CCCCCCCCC(CCCCCCCC)OC(=O)CCCCCCCN(CCO)CCCCCCCC(=O)OCCCCCCCCF [Compound 21]	4.09E+05	1.16E+06	1.03E+05
